Data as given in US9951066B2, “Compositions, uses and methods for making them” (Pimera, Inc., priority 2014, dated 2018).
Structures can show the parent of a compound that is named as a salt. Where two headings read alike, the source gives them in different places.

Assays:
Assay type in all cases: cell-based
[1] = test system: Hep G2; assay: Alamar Blue cell viability assay, Hep G2; details: Homo sapiens, HepG2, 96 h incubation, read-out: cell proliferation inhibition Hep G2
Protocol: (§1) Inhibitory activity on cell proliferation of representative compounds of the invention was determined using an Alamar Blue cell viability assay as described hereafter.
(§2) 3000 cancer cells in 100 uL of cell culture media were plated in each well of a 96-well clear bottom, black wall cell culture-pretreated plate.
(§3) The next day compounds are serially diluted (3-fold in cell culture media) across a 96-well polypropylene mother plate from row A to row F, to yield 6 concentrations (10 uM, 3.3 uM, 1.1 uM, 370 nM, 124 nM and 41 nM) for each test compound. Rows G and H contain only DMSO.
(§4) Once titrations are made, the media in plates with cells were disposed and 100 μL of drug dilutions are transferred to plates with cells. After a ninety six-hour incubation at 37° C., 10 uL of resazurin solution from Alamar Blue Cell Viability kit (Invitrogen, Carlsbad, Calif.) was added to the media and cells were incubated at 37° C. for three more hours. At the end of this incubation the production of resofurin was measured using Spectrmax M2 microplate reader (Molecular Devices, Sunnyvale, Calif.)

[2] = test system: A2780; assay: Alamar Blue cell viability assay, A2780; details: Homo sapiens, cell proliferation inhibition, 96 h incubation, read-out: Pharmaceutical activity IC50 A2780
Protocol: as §1, §2, §3, §4

[3] = test system: A549; assay: Alamar Blue cell viability assay, A549; details: Homo sapiens, 96 h incubation, read-out: cell proliferation inhibition A549
Protocol: as §1, §2, §3, §4

[4] = test system: KG-1; assay: Alamar Blue cell viability assay, KG-1; details: Homo sapiens, 96 h incubation, read-out: cell proliferation inhibition KG-1
Protocol: as §1, §2, §3, §4

[5] = test system: Malme-3M; assay: Alamar Blue cell viability assay, Malme-3M; details: Homo sapiens, cell proliferation inhibition, 96 h incubation, read-out: Pharmaceutical activity IC50 Malme-3M
Protocol: as §1, §2, §3, §4

[6] = test system: A2058; assay: Alamar Blue cell viability assay, A2058; details: Homo sapiens, cell proliferation inhibition, 96 h incubation, read-out: Pharmaceutical activity IC50 A2058
Protocol: as §1, §2, §3, §4

[7] = test system: ML-2; assay: Alamar Blue cell viability assay, ML-2; details: Homo sapiens, 96 h incubation, read-out: cell proliferation inhibition ML-2
Protocol: as §1, §2, §3, §4

[8] = test system: WM-115; assay: Alamar Blue cell viability assay, WM-115; details: Homo sapiens, 96 h incubation, read-out: cell proliferation inhibition WM-115
Protocol: as §1, §2, §3, §4

[9] = test system: B16-F10; assay: Alamar Blue cell viability assay, B16-F10; details: Mus musculus, 96 h incubation, read-out: cell proliferation inhibition B16-F10
Protocol: as §1, §2, §3, §4

[10] = test system: TOV112D; assay: Alamar Blue cell viability assay, TOV112D ovarian cell line; details: Homo sapiens, 96 h incubation, read-out: IC50 in ovarian cell lines TOV112D
Protocol: as §1, §2, §3, §4

[11] = test system: JHOM1; assay: Alamar Blue cell viability assay, JHOM1 ovarian cell line; details: 96 h incubation, read-out: IC50 in ovarian cell lines JHOM1
Protocol: as §1, §2, §3, §4

[12] = test system: PC-3; assay: Alamar Blue cell viability assay, PC-3; details: Homo sapiens, 96 h incubation, read-out: cell proliferation inhibition PC-3
Protocol: as §1, §2, §3, §4

[13] = test system: JHOC9; assay: Alamar Blue cell viability assay, JHOC9 ovarian cell line; details: 96 h incubation, read-out: IC50 in ovarian cell lines JHOC9
Protocol: as §1, §2, §3, §4

[14] = test system: DLD-1; assay: Alamar Blue cell viability assay, DLD-1; details: Homo sapiens, 96 h incubation, read-out: cell proliferation inhibition DLD-1
Protocol: as §1, §2, §3, §4

[15] = test system: CT26; assay: Alamar Blue cell viability assay, CT26; details: Mus musculus, 96 h incubation, read-out: cell proliferation inhibition CT26
Protocol: as §1, §2, §3, §4

[16] = test system: NB4-Av; assay: Alamar Blue cell viability assay, NB4-Av; details: 96 h incubation, read-out: cell proliferation inhibition NB4-Av
Protocol: as §1, §2, §3, §4

[17] = test system: MCF7; assay: Alamar Blue cell viability assay, MCF7; details: Homo sapiens, 96 h incubation, read-out: cell proliferation inhibition MCF7
Protocol: as §1, §2, §3, §4

[18] = test system: HT-1080; assay: Alamar Blue cell viability assay, HT-1080; details: Homo sapiens, 96 h incubation, read-out: cell proliferation inhibition HT-1080
Protocol: as §1, §2, §3, §4

[19] = test system: SKM_1_AV; assay: Alamar Blue cell viability assay, SKM_1_AV; details: 96 h incubation, read-out: cell proliferation inhibition SKM_1_AV
Protocol: as §1, §2, §3, §4

[20] = test system: kuramochi; assay: Alamar Blue cell viability assay, kuramochi ovarian cell line; details: 96 h incubation, read-out: IC50 in ovarian cell lines kuramochi
Protocol: as §1, §2, §3, §4

[21] = test system: JHOC7; assay: Alamar Blue cell viability assay, JHOC7 ovarian cell line; details: 96 h incubation, read-out: IC50 in ovarian cell lines JHOC7
Protocol: as §1, §2, §3, §4

[22] = test system: SK-MEL 28; assay: Alamar Blue cell viability assay, SK-MEL 28; details: Homo sapiens, cell proliferation inhibition, 96 h incubation, read-out: Pharmaceutical activity IC50 SK-MEL 28
Protocol: as §1, §2, §3, §4

[23] = test system: HCT-116; assay: Alamar Blue cell viability assay, HCT-116; details: Homo sapiens, 96 h incubation, read-out: cell proliferation inhibition HCT-116
Protocol: as §1, §2, §3, §4

[24] = test system: AGS; assay: Alamar Blue cell viability assay, AGS; details: Homo sapiens, 96 h incubation, read-out: cell proliferation inhibition AGS
Protocol: as §1, §2, §3, §4

[25] = test system: A375 cell line; assay: Alamar Blue cell viability assay, A375; details: Homo sapiens, A-375; cell proliferation inhibition, Alamar Blue, 96 h incubation; read-out: Pharmaceutical activity IC50 A375
Protocol: as §1, §2, §3, §4

[26] = test system: SKM-1; assay: Alamar Blue cell viability assay, SKM-1; details: Homo sapiens, 96 h incubation, read-out: cell proliferation inhibition SKM-1
Protocol: as §1, §2, §3, §4

[27] = test system: MDA-MB-231; assay: Alamar Blue cell viability assay, MDA-MB-231; details: Homo sapiens, 96 h incubation, read-out: cell proliferation inhibition MDA-MB-231
Protocol: as §1, §2, §3, §4

[28] = test system: NCI-H1299; assay: Alamar Blue cell viability assay, NCI-H1299; details: Homo sapiens, 96 h incubation, read-out: cell proliferation inhibition NCI-H1299
Protocol: as §1, §2, §3, §4

[29] = test system: U-87 MG; assay: Alamar Blue cell viability assay, U-87 MG; details: Homo sapiens, cell proliferation inhibition, 96 h incubation, read-out: Pharmaceutical activity IC50 U-87 MG
Protocol: as §1, §2, §3, §4

[30] = test system: LnCAP; assay: Alamar Blue cell viability assay, LnCAP; details: Homo sapiens, 96 h incubation, read-out: cell proliferation inhibition LnCAP
Protocol: as §1, §2, §3, §4

[31] = test system: NOMO-1; assay: Alamar Blue cell viability assay, NOMO-1; details: Homo sapiens, 96 h incubation, read-out: cell proliferation inhibition NOMO-1
Protocol: as §1, §2, §3, §4

[32] = test system: Hs.294T; assay: Alamar Blue cell viability assay, Hs.294T; details: Homo sapiens, 96 h incubation, read-out: cell proliferation inhibition Hs.294T
Protocol: as §1, §2, §3, §4

[33] = test system: ES.2; assay: Alamar Blue cell viability assay, ES.2; details: Homo sapiens
Protocol: as §1, §2, §3, §4

[34] = test system: 2008; assay: Alamar Blue cell viability assay, 2008; details: cell proliferation inhibition, 96 h incubation, read-out: Pharmaceutical activity IC50 2008
Protocol: as §1, §2, §3, §4

[35] = test system: EF-21; assay: Alamar Blue cell viability assay, EF-21 ovarian cell line; details: 96 h incubation, read-out: IC50 in ovarian cell lines EF-21
Protocol: as §1, §2, §3, §4

[36] = test system: 4T1; assay: Alamar Blue cell viability assay, 4T1; details: Mus musculus, 96 h incubation, read-out: cell proliferation inhibition 4T1
Protocol: as §1, §2, §3, §4

[37] = Table 2, 96 h incubation, read-out: cell proliferation inhibition ES.2

How did the IC50 [1] turn out when `CNC(=O)c1cc2ccc(N3CCCN(C)CC3)nc2n2c1nc1ccccc12` [Compound 2G, 2-(4-methyl-[1,4]diazepan-1-yl)-1,7,11b-triazabenzo[c]fluorene-6-carboxylic acid methylamide] was run?
Its IC50 is less than 1000 nM.

What about the IC50 [2] of the same molecule?
The IC50 was less than 1000 nM.

What about the IC50 [3] of the same molecule?
Its IC50 is 1000 to 5000 nM.

And the IC50 [4]?
The IC50 was less than 1000 nM.

And the IC50 [5]?
The IC50 was less than 1000 nM.

What about the IC50 [6] of the same molecule?
The IC50 was less than 1000 nM.

And the IC50 [7]?
Its IC50 is less than 1000 nM.

What about the IC50 [8] of the same molecule?
The IC50 was 1000 to 5000 nM.

What about the IC50 [9] of the same molecule?
The IC50 was 1000 to 5000 nM.

And the IC50 [10]?
The IC50 was less than 1000 nM.

What about the IC50 [11] of the same molecule?
Its IC50 is less than 1000 nM.

And the IC50 [12]?
Its IC50 is less than 1000 nM.

What about the IC50 [13] of the same molecule?
Its IC50 is less than 1000 nM.

And the IC50 [14]?
Its IC50 is less than 1000 nM.

And the IC50 [15]?
The IC50 was 1000 to 5000 nM.

What about the IC50 [16] of the same molecule?
Its IC50 is less than 1000 nM.

And the IC50 [17]?
Its IC50 is 1000 to 5000 nM.

What about the IC50 [18] of the same molecule?
Its IC50 is 1000 to 5000 nM.

And the IC50 [19]?
The IC50 was less than 1000 nM.

What about the IC50 [20] of the same molecule?
Its IC50 is less than 1000 nM.

What about the IC50 [21] of the same molecule?
The IC50 was less than 1000 nM.

And the IC50 [22]?
Its IC50 is less than 1000 nM.

And the IC50 [23]?
Its IC50 is less than 1000 nM.

And the IC50 [24]?
The IC50 was less than 1000 nM.

What about the IC50 [25] of the same molecule?
Its IC50 is less than 1000 nM.

And the IC50 [26]?
The IC50 was less than 1000 nM.

And the IC50 [27]?
Its IC50 is less than 1000 nM.

What about the IC50 [28] of the same molecule?
The IC50 was 1000 to 5000 nM.

What about the IC50 [29] of the same molecule?
The IC50 was less than 1000 nM.

What about the IC50 [30] of the same molecule?
Its IC50 is 1000 to 5000 nM.

And the IC50 [31]?
Its IC50 is less than 1000 nM.

What about the IC50 [32] of the same molecule?
The IC50 was less than 1000 nM.

What about the IC50 ([33]; Table 1, cell proliferation inhibition, 96 h incubation, read-out: Pharmaceutical activity IC50 ES.2) of the same molecule?
The IC50 was less than 1000 nM.

What about the IC50 [33, 37] of the same molecule?
The IC50 was less than 1000 nM.

And the IC50 [34]?
The IC50 was less than 1000 nM.

What about the IC50 [35] of the same molecule?
The IC50 was less than 1000 nM.

And the IC50 [36]?
Its IC50 is 5000 to 10000 nM.

With `CN1CCCN(c2ccc3cc(C(=O)O)c4nc5ccccc5n4c3n2)CC1` [Compound 1A, 2-(4-methyl-[1,4]diazepan-1-yl)-1,7,11b-triaza-benzo[c]fluorene-6-carboxylate sodium salt] as the molecule, how does the IC50 [1] read?
The IC50 was less than 1000 nM.

What about the IC50 [3] of the same molecule?
The IC50 was 5000 to 10000 nM.

And the IC50 [4]?
Its IC50 is less than 1000 nM.

And the IC50 [7]?
Its IC50 is less than 1000 nM.

And the IC50 [8]?
The IC50 was less than 1000 nM.

What about the IC50 [9] of the same molecule?
Its IC50 is 5000 to 10000 nM.

And the IC50 [12]?
Its IC50 is 1000 to 5000 nM.

What about the IC50 [14] of the same molecule?
The IC50 was 1000 to 5000 nM.

And the IC50 [15]?
Its IC50 is 5000 to 10000 nM.

And the IC50 [16]?
The IC50 was less than 1000 nM.

And the IC50 [17]?
Its IC50 is 1000 to 5000 nM.

And the IC50 [18]?
Its IC50 is 1000 to 5000 nM.

What about the IC50 [19] of the same molecule?
The IC50 was less than 1000 nM.

What about the IC50 [23] of the same molecule?
The IC50 was less than 1000 nM.

What about the IC50 [24] of the same molecule?
Its IC50 is 1000 to 5000 nM.

What about the IC50 [25] of the same molecule?
Its IC50 is less than 1000 nM.

What about the IC50 [26] of the same molecule?
The IC50 was less than 1000 nM.

What about the IC50 [27] of the same molecule?
Its IC50 is 1000 to 5000 nM.

What about the IC50 [28] of the same molecule?
The IC50 was 1000 to 5000 nM.

What about the IC50 [30] of the same molecule?
Its IC50 is 5000 to 10000 nM.

And the IC50 [31]?
Its IC50 is less than 1000 nM.

What about the IC50 [32] of the same molecule?
The IC50 was less than 1000 nM.

What about the IC50 [33, 37] of the same molecule?
The IC50 was less than 1000 nM.

What about the IC50 [36] of the same molecule?
Its IC50 is 5000 to 10000 nM.
